According to ChEMBL document CHEMBL4406860, “Discovery of potent ureido tetrahydrocarbazole derivatives for cancer treatments through targeting tumor-associated macrophages” (Eur J Med Chem, 2019):
Blank lines part the entries; values can stand above or below the compound they belong to. Activity calls are given as the source filed them. No cut-off for these calls is given here.

Assays:
RAW264.7 [1] = assay: Increase in TNF-alpha production in mouse RAW264.7 cells at 50 uM incubated for 24 hrs by ELISA (reference value: 1133.56 +/- 46.61 pg/ml); format: functional
[2] = Toxicity in C57BL/6 mouse xenografted with mouse LLC cells assessed as effect on body weight in prescence of anti-PD1 (1 mg/kg) at 5 mg/kg, ip administered every other day for 30 days; format: organism-based; conditions: in vivo, 720 h
RAW264.7 [3] = assay: Inhibition of M2-phenotype markers expression in mouse RAW264.7 cells assessed as decrease in IL-4 -induced in Ym-1R expression incubated for 1 hr by qRT-PCR; format: functional, cell-based
RAW264.7 [4] = assay: Induction of M1-phenotype markers expression in mouse RAW264.7 cells assessed as increase in iNOS expression incubated for 1 hr by qRT-PCR; format: functional, cell-based
[5] = system: Lewis lung carcinoma cell line; assay: Antitumor activity against mouse LLC cells xenografted in C57BL/6 mouse assessed as reduction in tumor volume at 5 mg/kg, ip administered every other day for 30 days; format: functional, organism-based
RAW264.7 [6] = assay: Cytotoxicity against mouse RAW264.7 cells assessed as reduction in cell viability at 1000 uM incubated for 24 hrs by CCK-8 assay; format: cell-based; conditions: raw264.7, 24 h
[7] = system: Lewis lung carcinoma cell line; assay: Antitumor activity against mouse LLC cells xenografted in C57BL/6 mouse assessed as reduction in tumor weight in prescence of anti-PD1 at 5 mg/kg, ip administered every other day for 30 days; format: functional, organism-based
Mus musculus [8] = assay: In vivo induction of M1-phenotype associated marker in C57BL/6 mouse xenografted with mouse LLC cells assessed as increase in F4/80-iNOS expression at 5 mg/kg, ip administered every other day for 30 days by DAPI staining based immunofluorescence microscopic analysis; format: functional, organism-based
Mus musculus [9] = assay: In vivo induction of M1-phenotype associated marker in C57BL/6 mouse xenografted with mouse LLC cells assessed as increase in F4/80-iNOS expression in presence of anti-PD1 at 5 mg/kg, ip administered every other day for 30 days by DAPI staining based immunofluorescence microscopic analysis; format: functional, organism-based
Mus musculus [10] = assay: In vivo inhibition of M2-phenotype associated marker in C57BL/6 mouse xenografted with mouse LLC cells assessed as decrease in F4/80-CD206 expression at 5 mg/kg, ip administered every other day for 30 days by DAPI staining based immunofluorescence microscopic analysis; format: functional, organism-based
RAW264.7 [11] = assay: Inhibition of M2-phenotype markers expression in mouse RAW264.7 cells assessed as decrease in IL-4 -induced CD206 expression incubated for 1 hr by qRT-PCR; format: functional, cell-based
RAW264.7 [12] = assay: Inhibition of M2-phenotype markers expression in mouse RAW264.7 cells assessed as decrease in IL-4 -induced in Arg-1 expression incubated for 1 hr by qRT-PCR; format: functional, cell-based
RAW264.7 [13] = assay: Increase in TNF-alpha production in mouse RAW264.7 cells incubated for 24 hrs by ELISA; format: functional, cell-based; conditions: RAW264.7, 24 h
RAW264.7 [14] = assay: Inhibition of M2-phenotype associated markers in mouse RAW264.7 cells assessed as F4/80-CD206 expression in presence of IL4 incubated for 24 hrs by flow cytometry (reference value: 7.54 %); format: functional
RAW264.7 [15] = assay: Inhibition of M2-phenotype markers expression in mouse RAW264.7 cells assessed as decrease in IL-4 -induced in Fizz-1 expression incubated for 1 hr by qRT-PCR; format: functional, cell-based
[16] = Toxicity in C57BL/6 mouse xenografted with mouse LLC cells assessed as effect on liver at 5 mg/kg, ip administered every other day for 30 days by H and E staining based microscopic analysis; format: organism-based; conditions: in vivo, 720 h
RAW264.7 [17] = assay: Induction of M1-phenotype markers expression in mouse RAW264.7 cells assessed as increase in TNFalpha expression incubated for 1 hr by qRT-PCR; format: functional, cell-based
Mus musculus [18] = assay: In vivo inhibition of M2-phenotype associated marker in C57BL/6 mouse xenografted with mouse LLC cells assessed as decrease in F4/80-CD206 expression in presence of anti-PD1 at 5 mg/kg, ip administered every other day for 30 days by DAPI staining based immunofluorescence microscopic analysis; format: functional, organism-based
[19] = Increase in TNF-alpha production in mouse BMDM cells incubated for 24 hrs by ELISA; format: functional, cell-based
[20] = system: Lewis lung carcinoma cell line; assay: Antitumor activity against mouse LLC cells xenografted in C57BL/6 mouse assessed as reduction in tumor volume in prescence of anti-PD1 at 5 mg/kg, ip administered every other day for 30 days; format: functional, organism-based
[21] = system: Lewis lung carcinoma cell line; assay: Antitumor activity against mouse LLC cells xenografted in C57BL/6 mouse assessed as reduction in tumor weight at 5 mg/kg, ip administered every other day for 30 days; format: functional, organism-based
[22] = Toxicity in C57BL/6 mouse xenografted with mouse LLC cells assessed as effect on body weight at 5 mg/kg, ip administered every other day for 30 days; format: organism-based; conditions: in vivo, 720 h
[23] = Toxicity in C57BL/6 mouse xenografted with mouse LLC cells assessed as effect on lungs at 5 mg/kg, ip administered every other day for 30 days by H and E staining based microscopic analysis; format: organism-based; conditions: in vivo, 720 h
RAW264.7 [24] = assay: Induction of M1-phenotype associated markers in mouse RAW264.7 cells assessed as F4/80-MHC II expression incubated for 24 hrs by flow cytometry (reference value: 12.1 %); format: functional
RAW264.7 [25] = assay: Induction of M1-phenotype markers expression in mouse RAW264.7 cells assessed as increase in IL-12alpha expression incubated for 1 hr by qRT-PCR; format: functional, cell-based
RAW264.7 [26] = assay: Induction of M1-phenotype markers expression in mouse RAW264.7 cells assessed as increase in IL-1beta expression incubated for 1 hr by qRT-PCR; format: functional, cell-based

SMILES: CC(C)NC(=O)c1ccc2c3c([nH]c2c1)CCC(NC(=O)Nc1ccc(Cl)c(C(F)(F)F)c1)C3 (configuration not stated)
Activity (RAW264.7 [1]): 5566.34 pg/mL

SMILES: O=C(Nc1ccc(Cl)c(C(F)(F)F)c1)NC1CCc2[nH]c3cc(C(=O)N4CCOCC4)ccc3c2C1 (configuration not stated)
Activity (RAW264.7 [1]): 6085.83 pg/mL

SMILES: O=C(Nc1ccc(Cl)c(C(F)(F)F)c1)NC1CCc2[nH]c3cccc(C(=O)NCCOCCO)c3c2C1 (configuration not stated)
Activity (RAW264.7 [1]): 500.62 pg/mL

EC50 (RAW264.7 [13]): 17.2 µM
EC50 [19]: 18.9 µM
SMILES: Cn1cc(-c2cccc3[nH]c4c(c23)CC(NC(=O)Nc2ccc(Cl)c(C(F)(F)F)c2)CC4)cn1 (configuration not stated)
Activity [2]: Non-Toxic
inhibition (RAW264.7 [3]): Dose-dependent effect
Activity (RAW264.7 [4]): Dose-dependent effect
Activity (RAW264.7 [1]): 5994.12 pg/mL
Activity [5]: Active
Activity (RAW264.7 [6]): Non-Toxic
Activity [7]: Active
Activity (Mus musculus [8]): Active
Activity (Mus musculus [9]): Active
Activity (Mus musculus [10]): Active
inhibition (RAW264.7 [11]): Dose-dependent effect
inhibition (RAW264.7 [12]): Dose-dependent effect
inhibition (INH) (RAW264.7 [14]): 8.76%
inhibition (RAW264.7 [15]): Dose-dependent effect
Activity [16]: Non-Toxic
Activity (RAW264.7 [17]): Dose-dependent effect
Activity (Mus musculus [18]): Active
Activity [20]: Active
Activity [21]: Active
Activity [22]: Non-Toxic
Activity [23]: Non-Toxic
Activity (RAW264.7 [24]): 24.4%
Activity (RAW264.7 [25]): Dose-dependent effect
Activity (RAW264.7 [26]): Dose-dependent effect

SMILES: CN1CCN(C(=O)c2ccc3[nH]c4c(c3c2)CC(NC(=O)Nc2ccc(Cl)c(C(F)(F)F)c2)CC4)CC1 (configuration not stated)
Activity (RAW264.7 [1]): 4935.9 pg/mL

SMILES: O=C(Nc1ccc(Cl)c(C(F)(F)F)c1)NC1CCc2[nH]c3c(C(=O)NCCOCCO)cccc3c2C1 (configuration not stated)
Activity (RAW264.7 [1]): 3364.65 pg/mL

SMILES: O=C(Nc1ccc(Cl)c(C(F)(F)F)c1)NC1CCc2[nH]c3cc(C(=O)NC4CC4)ccc3c2C1 (configuration not stated)
Activity (RAW264.7 [1]): 6034.58 pg/mL

SMILES: O=C(Nc1ccc(Cl)c(C(F)(F)F)c1)NC1CCc2[nH]c3cc(-c4cnn(CCO)c4)ccc3c2C1 (configuration not stated)
Activity (RAW264.7 [1]): 6043.84 pg/mL

EC50 (RAW264.7 [13]): 18.4 µM
EC50 [19]: 63.5 µM
SMILES: O=C(Nc1ccc(Cl)c(C(F)(F)F)c1)NC1CCc2[nH]c3c(C(=O)NC4CC4)cccc3c2C1 (configuration not stated)
Activity (RAW264.7 [1]): 7730.01 pg/mL

SMILES: O=C(Nc1ccc(Cl)c(C(F)(F)F)c1)NC1CCc2[nH]c3cc(C(=O)NCCO)ccc3c2C1 (configuration not stated)
Activity (RAW264.7 [1]): 4377.67 pg/mL

SMILES: O=C(Nc1ccc(Cl)c(C(F)(F)F)c1)NC1CCc2[nH]c3cc(C(=O)NCCCO)ccc3c2C1 (configuration not stated)
Activity (RAW264.7 [1]): 5030.39 pg/mL

SMILES: CN1CCN(C(=O)c2ccc3c4c([nH]c3c2)CCC(NC(=O)Nc2ccc(Cl)c(C(F)(F)F)c2)C4)CC1 (configuration not stated)
Activity (RAW264.7 [1]): 6552.76 pg/mL

SMILES: Cn1cc(-c2ccc3c4c([nH]c3c2)CCC(NC(=O)Nc2ccc(Cl)c(C(F)(F)F)c2)C4)cn1 (configuration not stated)
Activity (RAW264.7 [1]): 3770.66 pg/mL

SMILES: O=C(Nc1ccc(Cl)c(C(F)(F)F)c1)NC1CCc2[nH]c3ccc(C(=O)N4CCOCC4)cc3c2C1 (configuration not stated)
Activity (RAW264.7 [1]): 5510.03 pg/mL

SMILES: O=C(Nc1ccc(Cl)c(C(F)(F)F)c1)NC1CCc2[nH]c3ccc(C(=O)NC4CC4)cc3c2C1 (configuration not stated)
Activity (RAW264.7 [1]): 4458.11 pg/mL

SMILES: CN1CCN(C(=O)c2cccc3[nH]c4c(c23)CC(NC(=O)Nc2ccc(Cl)c(C(F)(F)F)c2)CC4)CC1 (configuration not stated)
Activity (RAW264.7 [1]): 3714.66 pg/mL

SMILES: O=C(Nc1ccc(Cl)c(C(F)(F)F)c1)NC1CCc2[nH]c3cccc(C(=O)N4CCOCC4)c3c2C1 (configuration not stated)
Activity (RAW264.7 [1]): 4025.54 pg/mL

SMILES: O=C(Nc1ccc(Cl)c(C(F)(F)F)c1)NC1CCc2[nH]c3cccc(C(=O)NC4CC4)c3c2C1 (configuration not stated)
Activity (RAW264.7 [1]): 6427.32 pg/mL

SMILES: O=C(Nc1ccc(Cl)c(C(F)(F)F)c1)NC1CCc2[nH]c3ccc(C(=O)NCCOCCO)cc3c2C1 (configuration not stated)
Activity (RAW264.7 [1]): 561.78 pg/mL

EC50 (RAW264.7 [13]): 13.4 µM
EC50 [19]: 20.9 µM
SMILES: O=C(Nc1ccc(Cl)c(C(F)(F)F)c1)NC1CCc2[nH]c3cccc(-c4cnn(CCO)c4)c3c2C1 (configuration not stated)
Activity (RAW264.7 [1]): 6714.86 pg/mL

SMILES: CN1CCN(C(=O)c2cccc3c4c([nH]c23)CCC(NC(=O)Nc2ccc(Cl)c(C(F)(F)F)c2)C4)CC1 (configuration not stated)
Activity (RAW264.7 [1]): 2506.98 pg/mL

SMILES: O=C(Nc1ccc(Cl)c(C(F)(F)F)c1)NC1CCc2[nH]c3cc(C(=O)NCCOCCO)ccc3c2C1 (configuration not stated)
Activity (RAW264.7 [1]): 6968.79 pg/mL

SMILES: O=C(Nc1ccc(Cl)c(C(F)(F)F)c1)NC1CCc2[nH]c3c(C(=O)N4CCOCC4)cccc3c2C1 (configuration not stated)
Activity (RAW264.7 [1]): 4127.15 pg/mL
